Experiments:
Type in all cases: in vivo
[1] = test system: Botrytis cinerea; assay: Botrytis test (bean)/protective; conditions: protective, application rate 500 g/ha, evaluation 2 days after inoculation
Method: Botrytis Test (Bean)/Protective • Solvent: 49 parts by weight of N,N-dimethylformamide • Emulsifier: 1 part by weight of alkylaryl polyglycol ether To produce a suitable preparation of active compound, 1 part by weight of active compound is mixed with the stated amounts of solvent and emulsifier, and the concentrate is diluted with water to the desired concentration. To test for protective activity, young plants are sprayed with the preparation of active compound at the stated application rate. After the spray coating has dried on, 2 small pieces of agar colonized by Botrytis cinerea are placed onto each leaf. The inoculated plants are placed in a dark chamber at about 20° C. and 100% relative atmospheric humidity. 2 days after the inoculation, the size of the infected areas on the leaves is evaluated. 0% means an efficacy which corresponds to that of the control, whereas an efficacy of 100% means that no infection is observed.

[2] = test system: Alternaria solani; assay: Alternaria test (tomato)/protective; conditions: protective, application rate 750 g/ha, evaluation 7 days after inoculation
[3] = test system: Erysiphe graminis f. sp. hordei; assay: Erysiphe test (barley)/protective; conditions: protective, application rate 750 g/ha, evaluation 7 days after inoculation

CC(C)CC(C)c1ccccc1NC(=O)c1ccccc1I (centres unmarked) [drawing 15]
Efficacy in % [1]: 93%

CC(C)CC(C)c1ccccc1NC(=O)c1ccccc1C(F)(F)F (centres unmarked) [drawing 16]
Efficacy in % [2]: 100%

CC(C)CC(C)c1ccccc1NC(=O)c1ccccc1I (centres unmarked) [drawing 17]
Efficacy in % [2]: 100%

CC(C)CC(C)c1ccccc1NC(=O)c1ccccc1C(F)(F)F (centres unmarked) [drawing 18]
Efficacy in % [3]: 95%

CC(C)CC(C)c1ccccc1NC(=O)c1ccccc1I (centres unmarked) [drawing 19]
Efficacy in % [3]: 95%

Reference: US7314958B2, “Phenylbenzamides” (Bayer CropScience AG, priority 2002, dated 2008)
